Assay results taken from US6642258B1, “Use of central cannabinoid receptor antagonist for preparing medicines” (Sanofi-Synthelabo, priority 1999, dated 2003).

How the values were obtained:
[1] = test system: experimental allergic encephalitis (EAE) in SjL/j mice; assay: Experimental allergic encephalitis (EAE) induced in SjL/j mice by subcutaneous PLP (fragment 139-151) in FCA plus Bordetella pertussis; format: in vivo; conditions: administered orally or intraperitoneally from day zero of induction
[2] = test system: experimental allergic encephalitis (EAE) in Lewis rats; assay: Experimental allergic encephalitis (EAE) induced in Lewis rats by intraplantar MBP (fragment 68-84) in FCA; format: in vivo; conditions: administered orally or intraperitoneally from day zero of induction

Cc1c(C(=O)NN2CCCCC2)nn(-c2ccc(Cl)cc2Cl)c1-c1ccc(Cl)cc1 [compound A, N-Piperidino-5-(4-chlorophenyl)-1-(2,4-dichlorophenyl)-4-methylpyrazole-3-carboxamide]
severity of the condition (paralysis of the hind quarters) [1]: statistically smaller
weight loss of the animals ([1]; compared with vehicle alone): significantly smaller
severity of the condition (paralysis of the hind quarters) [2]: statistically smaller
weight loss of the animals ([2]; compared with vehicle alone): significantly smaller
